From PubChem BioAssay (NCI)
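Method: 48-hour compound exposure of cells in 96-well plates, five concentrations, linear interpolation of endpoints. Abbreviation: GI50, concentration required for 50% inhibition of growth. TGI: concentration producing complete growth inhibition.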

tested on: SK-MEL-28 melanoma; test: NCI tumour cell line growth inhibition, 48 h

Structure (SMILES)	GI50	TGI
CS(=O)(=O)Nc1cc(-c2ccc3ncnc(Nc4cccc(Cl)c4)c3c2)cnc1Cl	0.3 µM	4.75 µM
CC1(C)OC(=O)C(=C2CCC(C(=O)Nc3cccc(C(F)(F)F)c3)N2)C(=O)O1 (stereo not drawn)	–	> 100 µM
CN(C)CCN1CCc2c([nH]c3ccccc23)C1c1cccnc1 (stereo not drawn)	–	> 100 µM
CCN(c1ccccc1)[C@H]1C(=O)N(c2ccc([N+](=O)[O-])cc2)[C@H]1c1ccc(OC)cc1	–	> 100 µM
COc1cc2cc(Oc3cccc(NC(=O)Nc4cc(C(F)(F)F)cc(C(F)(F)F)c4)c3)c(C)nc2cc1OC	1.19 µM	3.09 µM
CCOC(=O)[C@@H]1CSC(CC)=C(C(=O)O)N1	> 100 µM	> 100 µM
COc1cc(N(C)C)c(OC)cc1C=C1C=CC=C1	–	> 100 µM
C[C@H]1CC[P+](C)(c2ccccc2)C1 (stereo partly drawn)	–	> 100 µM
C=C1CC[C@H]2C(C)=CC[C@H]3C(=C)C(=O)O[C@@H]3[C@@H]12	–	> 100 µM
COc1cc(OC)c2c(=O)c3cccc([N+](=O)[O-])c3n(C)c2c1	–	> 100 µM
COc1cccc(/C=N\NC(=O)C(C)SC(C)C(=O)N/N=C/c2cccc(OC)c2)c1 (stereo not drawn)	–	> 72.8 µM
O=[N+]([O-])/C=C/c1ccc(Cl)cc1[N+](=O)[O-]	14 µM	27.7 µM
COc1ccc(-c2csc(Nc3cccc(-c4csc(C)n4)c3)n2)cc1	1.98 µM	> 12.1 µM
COc1cc(/C=C2\SC(N3CCCCC3)=NC2=O)ccc1OCCCCCCOc1ccc(/C=C2\SC(N3CCCCC3)=NC2=O)cc1OC	15.7 µM	43.9 µM
CCCCCCCCCCCCCCCC[n+]1ccccc1	1.25 µM	2.56 µM
Cc1cc(C)nc(NS(=O)(=O)c2ccc(Nc3c4ccccc4nc4c(C(=O)NCCN(C)C)cccc34)cc2)n1	–	20.4 µM
COc1cc2c3c(n(CCCNCCCNCCCN)c(=O)c2cc1OC)-c1cc2c(cc1C3=O)OCO2	> 100 µM	> 100 µM
COc1ccc(-c2c(N)noc2-c2cc(OC)c3c(c2)OCCO3)cc1	0.026 µM	> 100 µM
O=C1CCC(=O)N1Sc1ccccc1	–	> 100 µM

Structure (SMILES)	GI50	TGI
O=C(/C=C/c1ccccc1O)c1ccccc1Cl	–	> 100 µM
CCCCC1(C(NC(=O)c2ccccc2Cl)c2ccncc2)C(=O)N(c2ccccc2)N(c2ccccc2)C1=O (stereo not drawn)	–	> 100 µM
COc1ccc(/C=N/NS(=O)(=O)c2ccccc2)cc1	–	> 100 µM
COc1ccccc1NC(=O)C1=C(C)NC(C)=C(C(=O)Nc2ccccc2OC)C1c1ccco1	–	> 92 µM
C1=CC2CCC1CN2CCC1CNc2ccccc21 (stereo not drawn)	–	> 100 µM
Cc1ccc(OC(=O)N2C/C(=C\c3ccccc3)C(=O)/C(=C/c3ccccc3)C2)cc1	–	> 75 µM
O=C(O)CCCCC1CCSS1 (stereo not drawn)	–	> 100 µM
O=C1C(=O)C2(CC1S(=O)(=O)c1ccccc1)c1ccccc1-c1ccccc12 (stereo not drawn)	–	35.8 µM
O=c1oc2c3ccc4ccccc4c3n(CCN3CCCCC3)c2c2ccccc12	–	> 100 µM
O=c1cccc(Cl)[nH]1	–	> 100 µM
Cc1ccc(S(=O)C(C)C(Cl)c2ccccc2)cc1 (stereo not drawn)	–	> 100 µM
CN1CCc2ccccc2C(C(=O)c2ccc3c(c2)OCO3)C1=O (stereo not drawn)	–	> 100 µM
COc1cc(-c2nn(-c3cccc(NC(=O)CCNc4ccc(N5CCOCC5)cc4)c3)cc2-c2ccncc2)ccc1Cl	3.13 µM	> 100 µM
COc1ccc(Br)c(C(=O)N2CCc3ccccc32)c1N	–	> 100 µM
COc1ccc(C)cc1NC(=S)C#N	–	> 100 µM
Cc1ccc2ccc(-c3ccccc3)c3c2c1C(=O)c1ccccc1C3=O	–	> 100 µM
OCC(O)C(O)C(O)c1nn(-c2ccc(F)cc2)c2nc3cc(Cl)c(Cl)cc3nc12 (stereo not drawn)	–	41.9 µM
COc1ccc(C2Cc3cc(OC)c(OC)c(OC)c3C2)cc1 (stereo not drawn)	–	> 100 µM

tested on: A498 renal; test: NCI tumour cell line growth inhibition, 48 h

Structure (SMILES)	TGI	GI50
CC1(C)OC(=O)C(=C2CCC(C(=O)Nc3cccc(C(F)(F)F)c3)N2)C(=O)O1 (stereo not drawn)	> 100 µM	–
CN(C)CCN1CCc2c([nH]c3ccccc23)C1c1cccnc1 (stereo not drawn)	> 100 µM	–
CN(C)c1ccc(C(O)C2=CC(=O)c3ccccc3C2=O)cc1 (stereo not drawn)	63 µM	15.1 µM
CCN(c1ccccc1)[C@H]1C(=O)N(c2ccc([N+](=O)[O-])cc2)[C@H]1c1ccc(OC)cc1	> 100 µM	–
COc1ccc(/C=C\c2cc(OC)c(OC)c(OC)c2)cc1	13.2 µM	–
